We go through 2 molecules from ChEMBL document CHEMBL3813638, “Investigation of the apoptotic pathway induced by benzimidazole-oxindole conjugates against human breast cancer cells MCF-7” (Bioorg Med Chem Lett, 2016).

Assay [1] deals with MCF7. The assay can be described thus: Induction of apoptosis in human MCF7 cells assessed as suppression of Bcl-2 expression after 48 hrs by Western blot analysis. It counts as functional, cell-based. (In western blotting, separated proteins are transferred to a membrane and probed.)
Assay [2] concerns MCF7. The assay can be described thus: Induction of apoptosis in human MCF7 cells assessed as increase in Bax expression after 48 hrs by Western blot analysis. It counts as functional, cell-based.
Assay [3] has as its system MCF7. The assay can be described thus: Induction of apoptosis in human MCF7 cells assessed as increase in cytochrome c levels at 1 to 2 uM after 48 hrs by Western blot analysis. The assay is classed as functional, cell-based.
Assay [4] has as its system MCF7. The assay can be described thus: Induction of apoptosis in human MCF7 cells assessed as increase in caspase-9 activation at 1 to 2 uM after 48 hrs by Western blot analysis. The assay is classed as functional, cell-based.
Assay [5] relates to MCF7. The assay can be described thus: Induction of apoptosis in human MCF7 cells assessed as increase in PARP 89 KDa cleavage at 1 to 2 uM after 48 hrs by Western blot analysis. It counts as functional, cell-based.
Assay [6] has as its system HEK293. The assay can be described thus: Cytotoxicity against human HEK293 cells assessed as cell growth inhibition after 48 hrs by MTT assay. The assay is classed as cell-based. The note with it: HEK293, 48 h. Background: Formazan colour is commonly taken as a measure of viable cells.
The subject of assay [7] is Vero. The assay can be described thus: Cytotoxicity against African green monkey Vero cells assessed as cell growth inhibition after 48 hrs by MTT assay. The assay is classed as cell-based. The note with it: Chlorocebus sabaeus.
Assay [8] has as its system MCF7. The assay can be described thus: Disruption of mitochondrial membrane potential in human MCF7 cells assessed as cells with vital and intact mitochondrial membrane at 1 uM after 48 hrs by JC-1 staining based flow cytometry (reference value: 94%). The assay is classed as functional.
Assay [9] deals with MCF7. The assay can be described thus: Disruption of mitochondrial membrane potential in human MCF7 cells assessed as cells with vital and intact mitochondrial membrane at 2 uM after 48 hrs by JC-1 staining based flow cytometry (reference value: 94%). The assay is classed as functional.
For assay [10], the system named is MCF7. The assay can be described thus: Induction of ROS generation in human MCF7 cells at 1 uM after 48 hrs by DCFDA fluorescent probe based flow cytometry (reference value: 5.3%). The assay is classed as functional.
Assay [11] deals with MCF7. The assay can be described thus: Induction of ROS generation in human MCF7 cells at 2 uM after 48 hrs by DCFDA fluorescent probe based flow cytometry (reference value: 5.3%). The assay is classed as functional.
In assay [12] the test system is MCF7. The assay can be described thus: Induction of apoptosis in human MCF7 cells assessed as viable cells at 1 uM after 24 hrs by Annexin V-FITC/PI dual staining based flow cytometry (reference value: 94.9%). The assay is classed as functional. The note with it: MCF7, 24 h, read-out: Activity. (A flow cytometer gives signals particle by particle.)
In assay [13] the test system is MCF7. The assay can be described thus: Induction of apoptosis in human MCF7 cells assessed as early apoptotic cells at 1 uM after 24 hrs by Annexin V-FITC/PI dual staining based flow cytometry (reference value: 3.5%). It counts as functional.
In assay [14] the test system is MCF7. The assay can be described thus: Induction of apoptosis in human MCF7 cells assessed as late apoptotic cells at 1 uM after 24 hrs by Annexin V-FITC/PI dual staining based flow cytometry (reference value: 1.5%). It counts as functional.
Assay [15] concerns MCF7. The assay can be described thus: Induction of apoptosis in human MCF7 cells assessed as necrotic cells at 1 uM after 24 hrs by Annexin V-FITC/PI dual staining based flow cytometry (reference value: 0.1%). It counts as functional.
In assay [16] the test system is MCF7. The assay can be described thus: Induction of apoptosis in human MCF7 cells assessed as viable cells at 2 uM after 24 hrs by Annexin V-FITC/PI dual staining based flow cytometry (reference value: 94.9%). The note with it: MCF7, 24 h, read-out: Activity. It counts as functional.
The test system of assay [17] is MCF7. The assay can be described thus: Induction of apoptosis in human MCF7 cells assessed as early apoptotic cells at 2 uM after 24 hrs by Annexin V-FITC/PI dual staining based flow cytometry (reference value: 3.5%). It counts as functional.
Assay [18] has as its system MCF7. The assay can be described thus: Induction of apoptosis in human MCF7 cells assessed as late apoptotic cells at 2 uM after 24 hrs by Annexin V-FITC/PI dual staining based flow cytometry (reference value: 1.5%). The assay is classed as functional.
Assay [19] has as its system MCF7. The assay can be described thus: Induction of apoptosis in human MCF7 cells assessed as necrotic cells at 2 uM after 24 hrs by Annexin V-FITC/PI dual staining based flow cytometry (reference value: 0.1%). The assay is classed as functional.
Assay [20] has as its system MCF7. The assay can be described thus: Cytotoxicity against human MCF7 cells. The assay is classed as functional, cell-based.

pIC50: −log10 of the molar value. Calls of active or inactive are those of the source. No cut-off for these calls is given here.

In the case of `O=C1Nc2cc(Cl)ccc2/C1=C/c1ccc2nc(-c3cc(F)cc(F)c3)[nH]c2c1`, the Activity entry was “Dose-dependent effect” in assay [1]; “Dose-dependent effect” in assay [2]; 83.1% in assay [8]; 61.8% in [9]; 20.3% in assay [10]; 30% in assay [11]. For the same molecule, the Activity in [13] is on record as 32.5%; in [14] it was 23.4%; in assay [15], 1.8%; in assay [17], 33%; in [18], 34.9%; in assay [19] it was 1.2%. Besides, the result in assay [3], in assay [4] and in [5] was Active. In addition, the negative logarithm of the IC50 (pIC50) (usually −log10 of the IC50, conventionally taken in molar units) in assay [6] was 3.83; in assay [7] it was 4.01; in assay [20] it was 5.71. The viability at 1 µM in assay [12] stood at 42.3%. Also, the viability at 2 µM in assay [16] is 31%.
For `COc1ccc(-c2nc3ccc(/C=C4\C(=O)Nc5ccc(Cl)cc54)cc3[nH]2)cc1`, the Activity entry is “Dose-dependent effect” in assay [1]; “Dose-dependent effect” in [2]; 80.7% in assay [8]; 57.7% in assay [9]; 21.9% in assay [10]; 33.8% in [11]. Moreover, the Activity in assay [13] is listed as 26.3%; in assay [14] it was 31.3%; in assay [15], 1.6%; in assay [17], 35.4%; in assay [18] it was 36.5%; in [19], 1.1%. Also, the result in [3], in assay [4] and in assay [5] was Active. The pIC50 in assay [6] is 3.77; in [7] it was 3.96; in assay [20], 5.74. The viability at 1 µM in assay [12] worked out at 40.7%. The viability at 2 µM in [16] worked out at 27%.
